PMC3380439 (Bioorganic & medicinal chemistry, 2011)
Where “and” joins values, the source holds several entries; their conditions need not be identical. Equal entries are not always repeated.

Assays:
[1] = Critical micelle concentration by tensiometer measurements in water; type: physicochemical; conditions: for CMC: in water, triplicate single values
herpes-simplex virus 2 = conditions: ref xxi; cited from earlier work
bacteriophage φ6 = conditions: ref xxi; cited from earlier work
[2] = system: simian immunodeficiency virus (SIV); conditions: ref xxii; cited from earlier work

Compound | CMC [1] | also measured
CCCCCCCCCCCCCCCC(=O)OC[C@H]1O[C@H](OC)[C@@H](O)[C@@H](O)[C@@H]1OC(=O)CCCCCCCCCCCCCCC [Compound 8, Methyl-4,6-di-O-palmitate-α-D-mannopyranoside] |  | concentration above which precipitates rather than micelles form in water ([1]; interpretation of surface tension data): > 500 nM
CCCCCCCCCCCCCCCC(=O)O[C@@H]1[C@H](O)[C@@H](O[C@@H]2O[C@H](CO)[C@H](O)[C@H](O)[C@H]2O)O[C@H](CO)[C@H]1O [Compound 4, β-D-Galactopyranosyl-(1→1)-3-O-palmitate-α-D-mannopyranoside] | 12.5 µM | 
CCCCCCCCCCCCCCCC(=O)OC[C@H]1O[C@H](O[C@@H]2O[C@H](CO)[C@H](O)[C@H](O)[C@H]2O)[C@@H](O)[C@@H](O)[C@@H]1O [Compound 3, β-D-Galactopyranosyl-(1→1)-6-O-palmitate-α-D-mannopyranoside] | 10.5 µM | 
1-O-lauryl-glycerol [GML] |  | activity against herpes-simplex virus 2 (herpes-simplex virus 2): low micromolar activity; activity against bacteriophage φ6 (bacteriophage φ6): low micromolar activity; prevention of SIV in rhesus macaque model [2]: prevent simian immunodeficiency virus (SIV)

Second part, led by results:

CMC [1] | Compound | also measured
13.5 µM and 13.7 µM | CCCCCCCCCCCCCCCC(=O)OC[C@H]1O[C@H](OC)[C@@H](O)[C@@H](O)[C@@H]1O [Compound 7, Methyl-6-O-palmitate-α-D-mannopyranoside] | 
10.5 µM and 12 µM | CCCCCCCCCCCCCCCC(=O)OC[C@H]1O[C@H](O[C@@H]2O[C@H](CO)[C@@H](O)[C@H](O)[C@H]2O)[C@@H](O)[C@@H](O)[C@@H]1O [Compound 6, β-D-Glucopyranosyl-(1→1)-6-O-palmitate-α-D-mannopyranoside] | 
